According to ChEMBL document CHEMBL6096671, “Discovery of VU6024578/BI02982816: An mGlu1 Positive Allosteric Modulator with Efficacy in Preclinical Antipsychotic and Cognition Models” (J Med Chem, 2024):
Blank lines part the entries; values can stand above or below the molecule they belong to. Active and inactive are the calls of the source. The rule behind the calls is not given here.

Experiments:
[1] = Initial plasma concentration in male dog; format: ADME, Canis lupus familiaris; settings: read-out: C0
[2] = Unbound initial plasma concentration in male dog; format: ADME, Canis lupus familiaris
[3] = biological target: T1, Metabotropic glutamate receptor 1 (Homo sapiens, UniProt Q13255); experiment: Positive allosteric modulation of human mGlu1
[4] = Toxicity in male Sprague-Dawley rat assessed as catalepsy at 1.5 mg/kg, ip measured after 100 mins; format: organism-based; settings: in vivo, 1.667 h
[5] = biological target: Metabotropic glutamate receptor 2 (Rattus norvegicus, UniProt P31421); experiment: Positive allosteric modulation of rat mGlu2 receptor
[6] = biological target: Metabotropic glutamate receptor 2 (Homo sapiens, UniProt Q14416); experiment: Positive allosteric modulation of human mGlu2 receptor
Chain of Metabotropic glutamate receptor 2 (Homo sapiens, UniProt Q14416) (Q14416 whole entry): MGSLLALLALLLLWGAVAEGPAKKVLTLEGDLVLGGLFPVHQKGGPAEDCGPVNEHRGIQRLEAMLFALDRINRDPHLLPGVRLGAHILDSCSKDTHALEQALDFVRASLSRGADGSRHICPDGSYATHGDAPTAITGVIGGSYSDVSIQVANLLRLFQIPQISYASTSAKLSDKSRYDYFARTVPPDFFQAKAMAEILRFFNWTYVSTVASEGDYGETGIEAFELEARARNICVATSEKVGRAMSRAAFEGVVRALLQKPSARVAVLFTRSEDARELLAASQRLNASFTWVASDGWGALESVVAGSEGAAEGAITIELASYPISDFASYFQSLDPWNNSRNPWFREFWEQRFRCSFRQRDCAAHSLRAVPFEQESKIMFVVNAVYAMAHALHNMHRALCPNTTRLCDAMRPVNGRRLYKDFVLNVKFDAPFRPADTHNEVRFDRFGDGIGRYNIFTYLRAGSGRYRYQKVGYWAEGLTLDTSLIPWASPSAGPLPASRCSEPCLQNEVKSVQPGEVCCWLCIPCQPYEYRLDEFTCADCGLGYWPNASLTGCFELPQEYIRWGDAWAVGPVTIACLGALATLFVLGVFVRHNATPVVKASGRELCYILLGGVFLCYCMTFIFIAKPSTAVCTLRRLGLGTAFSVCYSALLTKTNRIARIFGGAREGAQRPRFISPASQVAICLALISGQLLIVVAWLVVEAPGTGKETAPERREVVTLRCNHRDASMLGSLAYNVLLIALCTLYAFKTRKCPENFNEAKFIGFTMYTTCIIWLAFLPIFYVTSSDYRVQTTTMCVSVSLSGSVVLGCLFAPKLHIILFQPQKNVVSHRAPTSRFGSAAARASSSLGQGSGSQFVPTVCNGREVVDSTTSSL

[7] = biological target: Metabotropic glutamate receptor 3 (Homo sapiens, UniProt Q14832); experiment: Positive allosteric modulation of human mGlu3 receptor
[8] = biological target: Metabotropic glutamate receptor 4 (Homo sapiens, UniProt Q14833); experiment: Positive allosteric modulation of human mGlu4 receptor
Chain of Metabotropic glutamate receptor 4 (Homo sapiens, UniProt Q14833) (Q14833 whole entry): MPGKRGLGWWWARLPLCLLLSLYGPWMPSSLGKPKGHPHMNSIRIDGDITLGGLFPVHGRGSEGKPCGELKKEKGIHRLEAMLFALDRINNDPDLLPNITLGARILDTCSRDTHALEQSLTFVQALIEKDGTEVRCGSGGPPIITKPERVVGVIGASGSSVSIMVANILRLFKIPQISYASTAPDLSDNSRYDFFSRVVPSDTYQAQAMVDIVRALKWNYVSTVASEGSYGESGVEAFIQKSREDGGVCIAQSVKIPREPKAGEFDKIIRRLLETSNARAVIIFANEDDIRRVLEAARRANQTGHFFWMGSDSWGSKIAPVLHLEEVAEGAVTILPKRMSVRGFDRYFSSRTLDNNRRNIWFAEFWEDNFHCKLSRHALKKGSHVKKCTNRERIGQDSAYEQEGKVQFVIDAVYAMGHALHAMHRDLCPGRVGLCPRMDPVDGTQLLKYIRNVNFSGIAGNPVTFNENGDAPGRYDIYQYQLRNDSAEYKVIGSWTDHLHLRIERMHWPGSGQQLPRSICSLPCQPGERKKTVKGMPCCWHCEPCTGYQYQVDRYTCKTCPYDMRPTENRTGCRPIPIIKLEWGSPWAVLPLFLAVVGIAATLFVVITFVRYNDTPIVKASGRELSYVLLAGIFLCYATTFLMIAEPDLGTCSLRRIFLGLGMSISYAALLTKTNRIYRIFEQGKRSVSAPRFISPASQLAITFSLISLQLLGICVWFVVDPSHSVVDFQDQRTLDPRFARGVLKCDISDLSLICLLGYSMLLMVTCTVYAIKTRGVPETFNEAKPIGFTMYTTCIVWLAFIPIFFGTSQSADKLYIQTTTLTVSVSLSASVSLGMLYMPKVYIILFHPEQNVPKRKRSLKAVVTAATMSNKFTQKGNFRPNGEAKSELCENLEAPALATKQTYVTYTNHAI

[9] = biological target: Metabotropic glutamate receptor 5 (Homo sapiens, UniProt P41594); experiment: Positive allosteric modulation of human mGlu5 receptor
[10] = biological target: Metabotropic glutamate receptor 7 (Homo sapiens, UniProt Q14831); experiment: Positive allosteric modulation of human mGlu7 receptor
Chain of Metabotropic glutamate receptor 7 (Homo sapiens, UniProt Q14831) (Q14831 whole entry): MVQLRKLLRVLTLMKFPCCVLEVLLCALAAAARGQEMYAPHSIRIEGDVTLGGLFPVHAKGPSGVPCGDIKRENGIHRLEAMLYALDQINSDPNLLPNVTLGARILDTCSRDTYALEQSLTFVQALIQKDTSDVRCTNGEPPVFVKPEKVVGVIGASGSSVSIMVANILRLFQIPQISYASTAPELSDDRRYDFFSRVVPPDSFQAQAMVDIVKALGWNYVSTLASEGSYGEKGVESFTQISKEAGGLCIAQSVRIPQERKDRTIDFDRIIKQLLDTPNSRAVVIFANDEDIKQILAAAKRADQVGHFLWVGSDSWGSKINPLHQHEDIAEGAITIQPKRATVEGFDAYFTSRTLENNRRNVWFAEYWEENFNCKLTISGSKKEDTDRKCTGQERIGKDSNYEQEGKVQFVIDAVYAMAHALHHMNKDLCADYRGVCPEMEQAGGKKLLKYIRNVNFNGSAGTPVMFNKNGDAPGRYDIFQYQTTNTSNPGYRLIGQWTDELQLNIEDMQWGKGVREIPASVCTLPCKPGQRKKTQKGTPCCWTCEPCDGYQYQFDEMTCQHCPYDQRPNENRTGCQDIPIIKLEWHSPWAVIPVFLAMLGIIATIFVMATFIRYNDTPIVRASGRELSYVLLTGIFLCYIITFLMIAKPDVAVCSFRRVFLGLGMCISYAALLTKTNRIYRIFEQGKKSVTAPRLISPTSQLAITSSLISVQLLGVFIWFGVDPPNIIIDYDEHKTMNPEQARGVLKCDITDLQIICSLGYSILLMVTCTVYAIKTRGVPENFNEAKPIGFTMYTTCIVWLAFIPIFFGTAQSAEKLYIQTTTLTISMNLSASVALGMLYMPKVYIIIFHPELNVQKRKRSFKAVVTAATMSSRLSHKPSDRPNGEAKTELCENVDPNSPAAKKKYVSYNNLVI

[11] = biological target: Metabotropic glutamate receptor 8 (Homo sapiens, UniProt O00222); experiment: Positive allosteric modulation of human mGlu8 receptor
[12] = biological target: Metabotropic glutamate receptor 3 (Rattus norvegicus, UniProt P31422); experiment: Positive allosteric modulation of rat mGlu3 receptor
[13] = biological target: Metabotropic glutamate receptor 4 (Rattus norvegicus, UniProt P31423); experiment: Positive allosteric modulation of rat mGlu4 receptor
[14] = biological target: Metabotropic glutamate receptor 5 (Rattus norvegicus, UniProt P31424); experiment: Positive allosteric modulation of rat mGlu5 receptor
[15] = biological target: Metabotropic glutamate receptor 7 (Rattus norvegicus, UniProt P35400); experiment: Positive allosteric modulation of rat mGlu7 receptor
Chain of Metabotropic glutamate receptor 7 (Rattus norvegicus, UniProt P35400) (P35400 whole entry): as the sequence (Q14831 whole entry) above, with R5G, A27V, N454H, S488T, A520S, D578N counted along it

[16] = biological target: Metabotropic glutamate receptor 8 (Rattus norvegicus, UniProt P70579); experiment: Positive allosteric modulation of rat mGlu8 receptor
Chain of Metabotropic glutamate receptor 8 (Rattus norvegicus, UniProt P70579) (P70579 whole entry): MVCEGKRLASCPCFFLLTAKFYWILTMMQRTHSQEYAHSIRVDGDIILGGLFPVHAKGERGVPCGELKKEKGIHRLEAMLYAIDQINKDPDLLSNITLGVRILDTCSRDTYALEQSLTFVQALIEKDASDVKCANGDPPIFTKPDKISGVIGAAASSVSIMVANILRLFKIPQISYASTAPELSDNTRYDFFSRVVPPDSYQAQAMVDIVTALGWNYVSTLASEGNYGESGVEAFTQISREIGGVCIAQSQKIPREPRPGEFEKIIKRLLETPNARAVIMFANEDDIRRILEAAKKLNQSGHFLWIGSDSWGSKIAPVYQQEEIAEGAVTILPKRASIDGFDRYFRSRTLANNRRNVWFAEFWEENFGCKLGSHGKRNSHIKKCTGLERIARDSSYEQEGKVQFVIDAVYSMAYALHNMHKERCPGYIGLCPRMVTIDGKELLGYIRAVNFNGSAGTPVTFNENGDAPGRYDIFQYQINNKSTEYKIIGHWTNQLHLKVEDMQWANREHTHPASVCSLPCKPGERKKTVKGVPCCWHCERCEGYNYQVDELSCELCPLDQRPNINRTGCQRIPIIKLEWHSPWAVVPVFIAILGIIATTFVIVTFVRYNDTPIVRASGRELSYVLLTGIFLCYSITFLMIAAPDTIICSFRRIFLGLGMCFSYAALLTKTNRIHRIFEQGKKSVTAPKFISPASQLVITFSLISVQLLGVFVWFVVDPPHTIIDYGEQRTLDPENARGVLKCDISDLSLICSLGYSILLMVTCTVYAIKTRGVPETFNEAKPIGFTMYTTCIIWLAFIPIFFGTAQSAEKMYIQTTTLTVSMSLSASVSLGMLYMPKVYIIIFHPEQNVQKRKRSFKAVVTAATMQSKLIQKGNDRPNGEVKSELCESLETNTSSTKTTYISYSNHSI

[17] = biological target: T1, Metabotropic glutamate receptor 1; experiment: Agonist activity at mGlu1 receptor (unknown origin) upto 30 uM; format: functional
Target sequence in this assay (Q13255 19-1194 limits assumed): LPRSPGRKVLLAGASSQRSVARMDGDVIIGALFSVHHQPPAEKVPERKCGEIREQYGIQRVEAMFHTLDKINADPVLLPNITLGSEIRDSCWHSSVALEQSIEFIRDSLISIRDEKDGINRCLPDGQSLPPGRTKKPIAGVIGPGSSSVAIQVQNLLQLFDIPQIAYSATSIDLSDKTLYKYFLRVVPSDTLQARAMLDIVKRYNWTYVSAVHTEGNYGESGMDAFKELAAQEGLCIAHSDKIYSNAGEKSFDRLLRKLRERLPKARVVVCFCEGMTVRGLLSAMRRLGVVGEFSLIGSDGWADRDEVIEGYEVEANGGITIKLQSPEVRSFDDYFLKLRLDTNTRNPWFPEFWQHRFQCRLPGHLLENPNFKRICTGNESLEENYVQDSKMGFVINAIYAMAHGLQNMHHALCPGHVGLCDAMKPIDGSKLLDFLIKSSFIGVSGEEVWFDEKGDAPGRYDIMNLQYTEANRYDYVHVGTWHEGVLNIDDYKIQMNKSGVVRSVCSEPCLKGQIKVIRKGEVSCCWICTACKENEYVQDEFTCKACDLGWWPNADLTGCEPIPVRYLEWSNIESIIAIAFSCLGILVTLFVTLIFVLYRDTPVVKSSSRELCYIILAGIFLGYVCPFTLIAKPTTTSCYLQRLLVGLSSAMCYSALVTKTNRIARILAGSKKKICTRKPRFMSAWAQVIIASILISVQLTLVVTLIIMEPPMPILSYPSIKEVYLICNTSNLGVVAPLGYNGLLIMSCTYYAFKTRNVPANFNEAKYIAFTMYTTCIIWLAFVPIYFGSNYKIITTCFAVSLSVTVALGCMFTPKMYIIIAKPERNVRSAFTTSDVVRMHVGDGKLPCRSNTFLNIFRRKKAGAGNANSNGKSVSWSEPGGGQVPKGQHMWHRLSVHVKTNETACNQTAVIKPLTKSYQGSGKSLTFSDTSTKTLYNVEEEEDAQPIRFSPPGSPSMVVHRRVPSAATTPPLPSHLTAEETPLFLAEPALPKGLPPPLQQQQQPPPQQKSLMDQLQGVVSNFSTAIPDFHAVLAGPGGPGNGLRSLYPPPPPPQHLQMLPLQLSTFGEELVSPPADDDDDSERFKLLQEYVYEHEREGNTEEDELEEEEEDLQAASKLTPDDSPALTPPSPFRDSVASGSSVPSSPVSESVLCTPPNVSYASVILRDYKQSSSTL

[18] = biological target: T1, Metabotropic glutamate receptor 1; experiment: Positive allosteric modulation of mGlu1 receptor (unknown origin) in presence of glutamate at EC20 concentration; settings: filed as positive allosteric modulator
Target sequence in this assay (Q13255 19-1194 limits assumed): as above

[19] = biological target: T1, Metabotropic glutamate receptor 1; experiment: Antagonist activity at mGlu1 receptor (unknown origin) assessed as desensitization of receptor at EC80 concentration; settings: filed as antagonist
Target sequence in this assay (Q13255 19-1194 limits assumed): as above

[20] = Antagonist activity at peripheral Benzodiazepine receptor (unknown origin); set-up: species or system Homo sapiens
[21] = Mutagenicity in Salmonella typhimurium by Ames test; format: toxicity; settings: salmonella enterica subsp. enterica serovar typhimurium
[22] = Stability of compound at pH 2.2; format: physicochemical; settings: buffer
[23] = Stability of compound at pH 7.4; format: physicochemical; settings: buffer
[24] = Drug metabolism in human liver microsomes assessed as furanyl ring oxidation incubated for 60 mins; format: ADME, Microsome; settings: 1 h
[25] = Drug metabolism in human liver microsomes assessed as furanyl ring opening incubated for 60 mins; format: ADME, Microsome; settings: 1 h
[26] = Drug metabolism in rat liver microsomes assessed as furanyl ring oxidation incubated for 60 mins; format: ADME, Microsome; settings: 1 h
[27] = Drug metabolism in rat liver microsomes assessed as furanyl ring opening incubated for 60 mins; format: ADME, Microsome; settings: 1 h
[28] = Glutathione reactivity in rat liver microsomes incubated for 1 hr in presence of glutathione; format: ADME, Microsome
[29] = Glutathione reactivity in human liver microsomes incubated for 1 hr in presence of glutathione; format: ADME, Microsome
[30] = Unbound brain concentration in male Sprague-Dawley rat at 3 mg/kg, po in 10% tween 80 formulation measured at 15 to 420 mins by LC-MS/MS analysis; format: ADME, organism-based; settings: in vivo, time 15-420 min
[31] = Toxicity in male Sprague-Dawley rat assessed as catalepsy at 1 to 10 mg/kg, po measured after 60 mins; format: organism-based; settings: in vivo, 1 h, dose 1-10 mg/kg
[32] = tested on: Rattus norvegicus; experiment: Antipsychotic efficacy against MK-801-induced po dosed male Sprague-Dawley rat assessed as reversal of MK-801 disruption by measuring recognition index measured after 30 mins by novel object recognition test; format: functional, organism-based; settings: dose 1-10 mg/kg
[33] = tested on: Rattus norvegicus; experiment: Antipsychotic efficacy against amphetamine-induced hyperlocomotion in male Sprague-Dawley rat assessed as reversal of hyperlocomotive state administered orally pretreated with compound followed by amphetamine addition and measured after 90 mins; format: functional, organism-based; settings: dose 1-10 mg/kg, route po
[34] = Unbound brain concentration in amphetamine-induced hyperlocomotion male Sprague-Dawley rat model at 3 mg/kg, po pretreated for 2.5 hrs; format: ADME, organism-based; settings: in vivo
[35] = tested on: Mus musculus; experiment: Antipsychotic efficacy against amphetamine-induced hyperlocomotion in male C57Bl/6 mouse assessed as reversal of hyperlocomotive state administered ip and pretreated with compound followed by amphetamine addition for 60 mins and measured after 90 mins; format: functional, organism-based; settings: dose 3-30 mg/kg
[36] = Unbound brain concentration in amphetamine-induced hyperlocomotion male Sprague-Dawley rat model at 3 mg/kg, po measured after 2.5 hrs; format: ADME, organism-based; settings: in vivo
[37] = Unbound brain concentration in amphetamine-induced hyperlocomotion male Sprague-Dawley rat model at 10 mg/kg, po measured after 6.5 hrs; format: ADME, organism-based; settings: in vivo
[38] = tested on: Rattus norvegicus; experiment: Antipsychotic activity in male Sprague-Dawley rat assessed as reduction in amphetamine-induced locomotor activity by measuring reversal of total ambulation at 3 mg/kg, po pretreated for 1 hrs followed by amphetamine addition and measured at 95 to 180 mins relative to control; format: functional; set-up: scale not given: the % may be the effect or the level left
[39] = Unbound brain concentration in amphetamine-induced hyperlocomotion male Sprague-Dawley rat model at 3 mg/kg, po; format: ADME, organism-based; settings: in vivo
[40] = tested on: Rattus norvegicus; experiment: Antipsychotic activity in male Sprague-Dawley rat assessed as reduction in amphetamine-induced locomotor activity by measuring reversal of total ambulation at 10 mg/kg, po pretreated for 5 hrs followed by amphetamine addition and measured at 95 to 180 mins relative to control; format: functional; set-up: scale not given: the % may be the effect or the level left
[41] = Unbound brain concentration in amphetamine-induced hyperlocomotion male Sprague-Dawley rat model at 10 mg/kg, po; format: ADME, organism-based; settings: in vivo
[42] = Cmax in amphetamine-induced male Sprague-Dawley rat model at 60 mg/kg and measured at 3.33 hrs post administration; format: ADME, organism-based; settings: in vivo
[43] = Toxicity in male Wistar rat assessed as increase in motor activity at 10 mg/kg, po measured at 120 mins post treatment by EEG analysis; format: organism-based; settings: in vivo, 2 h
[44] = Toxicity in male Wistar rat assessed as change in body temperature at 10 mg/kg, po measured at 120 mins post treatment by EEG analysis; format: organism-based; settings: in vivo, 2 h
[45] = Toxicity in male Wistar rat assessed as improvement in sleep-wake profile by measuring active wake state at 10 mg/kg, po measured at 120 mins post treatment by EEG analysis; format: organism-based; settings: in vivo, 2 h
[46] = Toxicity in male Wistar rat assessed as improvement in sleep-wake profile by measuring quiet wake state at 10 mg/kg, po measured at 120 mins post treatment by EEG analysis; format: organism-based; settings: in vivo, 2 h
[47] = Toxicity in male Wistar rat assessed as reduction in non rapid eye movement sleep at 1 to 10 mg/kg, po measured at 30 to 120 mins post treatment by EEG analysis; format: organism-based; settings: in vivo, dose lower 1 mg/kg, time lower 30 min, dose upper 10 mg/kg, time upper 120 min
[48] = Toxicity in male Wistar rat assessed as reduction in rapid eye movement sleep at 1 to 10 mg/kg, po measured at 30 to 120 mins post treatment by EEG analysis; format: organism-based; settings: in vivo, dose lower 1 mg/kg, time lower 30 min, dose upper 10 mg/kg, time upper 120 min
[49] = Toxicity in male Wistar rat assessed as reduction in delta power at 10 mg/kg, po measured at 60 to 240 mins post treatment by EEG analysis; format: organism-based; settings: in vivo, time 60-240 min
[50] = Toxicity in male Wistar rat assessed as reduction in alpha power at 10 mg/kg, po measured at 60 to 240 mins post treatment by EEG analysis; format: organism-based; settings: in vivo, time 60-240 min
[51] = Toxicity in male Wistar rat assessed as reduction in beta power at 10 mg/kg, po measured at 60 to 240 mins post treatment by EEG analysis; format: organism-based; settings: in vivo, time 60-240 min
[52] = tested on: Mus musculus; experiment: Reversal of MK-801 induced deficits in sc dosed male C57BL/6JRj mouse model assessed as 40 Hz ASSR in prefrontal cortex measured after 15 mins; format: functional, organism-based; settings: dose 0.8-3 mg/kg
[53] = tested on: Mus musculus; experiment: Reversal of MK-801 induced deficits in male C57BL/6JRj mouse model assessed as 40 Hz ASSR in prefrontal cortex at 0.8 mg/kg, sc measured after 15 mins; format: functional, organism-based
[54] = tested on: Mus musculus; experiment: Reversal of MK-801 induced deficits in male C57BL/6JRj mouse model assessed as 40 Hz ASSR in prefrontal cortex at 4 to 10 mg/kg, sc measured after 15 mins; format: functional, organism-based; settings: dose 4-10 mg/kg
[55] = tested on: Mus musculus; experiment: Reversal of MK-801 induced N1 sensory gating deficit in male C57BL/6JRj mouse model assessed as improvement in cognitive deficits at 10 mg/kg, sc; format: functional, organism-based
[56] = Unbound initial plasma concentration in male dog at 0.5 mg/kg, iv; format: ADME, organism-based, Canis lupus familiaris; settings: in vivo

concentration [1]: 1100 nM
C0(unbound) [2]: 36.4 nM
EC50 [3]: 0.013 µM
SMILES: Cc1ccc2c(c1)C(=O)N(c1ccc(NC(=O)c3occc3C)c(F)c1)C2=O

SMILES: O=C(CCCN1CCC(O)(c2ccc(Cl)cc2)CC1)c1ccc(F)cc1 [HALOPERIDOL]
Activity [4]: Toxic

EC50 [5]: > 30 µM
EC50 [6]: > 30 µM
EC50 [7]: > 30 µM
EC50 [8]: > 30 µM
EC50 [9]: > 30 µM
EC50 [10]: > 30 µM
EC50 [11]: > 30 µM
EC50 [12]: > 30 µM
EC50 [13]: > 30 µM
EC50 [14]: > 30 µM
EC50 [15]: > 30 µM
EC50 [16]: > 30 µM
Activity [17]: inactive
Activity [18]: Active
IC50 [20]: 0.207 µM
Stability [22]: Stable
Stability [23]: Stable
Drug metabolism [24]: metabolite_notdetected
Drug metabolism [25]: metabolite_notdetected
Drug metabolism [26]: metabolite_notdetected
Drug metabolism [27]: metabolite_notdetected
Drug metabolism [28]: metabolite_detected
Drug metabolism [29]: metabolite_detected
Drug uptake(free) [30]: 100 nM
Drug uptake(free) [34]: 32 nM
Drug uptake(free) [36]: 40 nM
Drug uptake(free) [37]: 44 nM
Drug uptake(free) [39]: 40 nM
Drug uptake(free) [41]: 44 nM
Cmax [42]: 313 nM
C0(unbound) [56]: 80 nM
SMILES: Cn1nc(-c2ccnn2C)cc1CNC(=O)c1cc(-c2ccco2)ccc1Cl
Activity [19]: Active; Slight Desensitization Was Observed
Activity [21]: Non-toxic
Activity [31]: Non-toxic
Activity [32]: Dose-dependent-effect
Activity [33]: Dose-dependent-effect
Activity [35]: Dose-dependent-effect
Activity [38]: 27.3%
Activity [40]: 25.1%
Activity [43]: Non-toxic
Activity [44]: Non-toxic
Activity [45]: Non-toxic
Activity [46]: Non-toxic
Activity [47]: Non-toxic
Activity [48]: Non-toxic
Activity [49]: Non-toxic
Activity [50]: Non-toxic
Activity [51]: Non-toxic
Activity [52]: Active
Activity [53]: inactive
Activity [54]: Active
Activity [55]: Active
